The test system of assay [1] is Antibodies to HIV-1. Description: ELISA with peptide or peptide mixture as antigen, identifying HIV-1 positive sera. As to conditions: Table 3. It is filed as binding, human. The procedure:
According to this test a peptide or a peptide mixture of the present invention is adsorbed onto the wells of a microtiter plate. The wells are then treated with sera to be tested. After washing, anti-human IgG labeled with peroxidase is added to the wells. The determination of the peroxidase is performed with a corresponding substrate, e.g. with o-phenylene diamine. Also in this procedure the peroxidase can be exchanged by another label, e.g. by a radioactive or fluorescence label.
(§1) Each well of the microtiter plate is saturated with 100 μl of a solution containing a peptide or mixture of peptides (5 μg/ml) and left overnight. The wells are emptied and washed twice with a washing buffer (Tris, 0.043M; NaCl, 0.5M; thimerosal, 0.01% w/v; Tween 20, 0.05% v/v; pH7.4). The wells are then saturated with 0.35 ml of washing buffer for 1 hr. at 37° C. and washed once with the same buffer. Serum samples to be analyzed are diluted with specimen buffer (washing buffer plus casein, 0.05% w/v). The wells are rinsed with washing buffer prior to the addition of the diluted serum sample (0.1 ml). These are left to incubate for 1 hr. at room temperature. The wells are then emptied, washed twice rapidly and then once for two minutes with washing buffer. […] The wells are then emptied and washed twice rapidly with washing buffer and then five times in which the buffer was in contact with the well 2 minutes per washing. The substrate solution (3,3', 5,5'-tetramethylbenzidine, 8 mg per ml of DMSO) is diluted with 100 volumes 0.1M citrate-acetate buffer, pH 5.6 containing 0.1% v/v of 30% H2 O2 and added to each well (0.1 ml per well). After 10 minutes the contents of each well is treated with 0.1 ml 2N H2 SO4 and the optical density read at 450 nm. All determinations are done in duplicate.
(In general: In an ELISA, binding on a coated surface is turned into a signal by an enzyme label.)

The test system of assay [2] is Antibodies to HIV-1. As to the kind of experiment: ELISA, relative performance of cyclic and non-cyclic HIV-1 peptides at serum dilutions (optical density). It counts as binding, human. The procedure:
Table 4 is provided to illustrate the sensitivity of cyclic versus non cyclic peptides in the ELISA test by comparing the results of some sera at various dilutions.
as §1

[3] abbreviates: single peptide, known HIV-1 positive sera.
Setting [4] is: single p 24 peptide, Free, HIV-1 positive sera.
The mark [5] stands for this setting: single p 24 peptide, coupled, HIV-1 positive sera.
Setting [6] is: serum specimen 87V103, dilution 1/50.
Setting [7] is: serum specimen 1428, dilution 1/50.
[8] abbreviates: serum specimen M-5, dilution 1/50.
The mark [9] stands for this setting: serum specimen M-5, dilution 1/100.
Setting [10] is: serum specimen M-5, dilution 1/200.
Where [11] appears, read: serum specimen M-5, dilution 1/400.
[12] abbreviates: serum specimen M-5, dilution 1/800.
Where [13] appears, read: serum specimen M-7, dilution 1/50.
Where [14] appears, read: serum specimen M-7, dilution 1/100.
[15] abbreviates: serum specimen M-7, dilution 1/200.
[16] abbreviates: serum specimen M-7, dilution 1/400.
Where [17] appears, read: serum specimen M-7, dilution 1/800.
Setting [18] is: serum specimen M-8, dilution 1/50.
[19] abbreviates: serum specimen M-8, dilution 1/100.
Setting [20] is: serum specimen M-8, dilution 1/200.
The mark [21] stands for this setting: serum specimen M-8, dilution 1/400.
[22] abbreviates: serum specimen M-8, dilution 1/800.
The mark [23] stands for this setting: serum specimen M-16, dilution 1/50.
Where [24] appears, read: serum specimen M-16, dilution 1/100.
Setting [25] is: serum specimen M-16, dilution 1/200.
Where [26] appears, read: serum specimen M-16, dilution 1/400.
[27] abbreviates: serum specimen M-16, dilution 1/800.

Ends that are not written are not given here. Peptide text beside a SMILES is read from it.

Take “NH2 -IWGCSGKLICTTAVPWNAS-COOH (H-IWGCSGKLICTTAVPWNAS-OH; cysteine pairing not given here) [Peptide 78, gp 41 602-620]”: in assay [1] (setting [3]), the “% Positive Sera Correctly Identified” value was 100%.
Take “CGNNPPIPVGE [Peptide 41, NH2 -CGNNPPIPVGE-COOH]”: the figures for the “% Positive Sera Correctly Identified” value in assay [1] (setting [4]) and in assay [1] (setting [5]) were 63% and 73%, respectively.
With “NH2 -RILAVERYLKDQQLLGIWGCSGKLICTTAVPWNAS-COOH [Peptide 87]”, the ELISA optical density in assay [2] (setting [6]) stood at 0.005 OPTICAL DENSITY UNITS; in assay [2] (setting [7]), 1.463 OPTICAL DENSITY UNITS; in assay [2] (setting [8]), 1.809 OPTICAL DENSITY UNITS; in assay [2] (setting [9]), 1.219 OPTICAL DENSITY UNITS; in assay [2] (setting [10]) it was 1.513 OPTICAL DENSITY UNITS; in assay [2] (setting [11]) it was 1.418 OPTICAL DENSITY UNITS. Moreover, the ELISA optical density in assay [2] (setting [12]) was 1.012 OPTICAL DENSITY UNITS; in assay [2] (setting [13]), 1.504 OPTICAL DENSITY UNITS; in assay [2] (setting [14]), 1.329 OPTICAL DENSITY UNITS; in assay [2] (setting [15]), 1.184 OPTICAL DENSITY UNITS; in assay [2] (setting [16]) it was 0.923 OPTICAL DENSITY UNITS; in assay [2] (setting [17]) it was 0.571 OPTICAL DENSITY UNITS. Moreover, the ELISA optical density in assay [2] (setting [18]) is 1.390 OPTICAL DENSITY UNITS; in assay [2] (setting [19]), 1.087 OPTICAL DENSITY UNITS; in assay [2] (setting [20]) it was 0.883 OPTICAL DENSITY UNITS; in assay [2] (setting [21]), 0.593 OPTICAL DENSITY UNITS; in assay [2] (setting [22]) it was 0.240 OPTICAL DENSITY UNITS; in assay [2] (setting [23]) it was 1.846 OPTICAL DENSITY UNITS. The ELISA optical density in assay [2] (setting [24]) is on record as 1.784 OPTICAL DENSITY UNITS; in assay [2] (setting [25]) it was 1.740 OPTICAL DENSITY UNITS; in assay [2] (setting [26]) it was 1.634 OPTICAL DENSITY UNITS; in assay [2] (setting [27]) it was 1.537 OPTICAL DENSITY UNITS. Also, the “% Positive Sera Correctly Identified” value in assay [1] (setting [3]) stood at 99%.
As for “NH2 -SGKLICTTAVPWNASWSNKSLEQGC-COOH [Peptide 56]”, the “% Positive Sera Correctly Identified” value in assay [1] (setting [3]) amounted to 100%.
Turning to CGKIEPLGVAPTKAKRRVVQREKR [Peptide 71], in assay [1] (setting [3]), the “% Positive Sera Correctly Identified” value came to 83%.
Same read-out and setting: with TTAVPWNASWSNKSLEQGC [Peptide 42] the figure was 5%.
Still for that read-out and setting: to “NH2 -GCSGKLICTTAVPWNASWSWSNKSLEQI-COOH [Peptide 95]” belongs 100%; to “NH2 -CGVERYLKQQLLGIWGCSGKLICTTAVPWNASWSNKSLEQI-COOH [Peptide 99]”, 100%.
Turning to `CC[C@H](C)[C@H](NC(=O)CNC(=O)[C@H](CC(C)C)NC(=O)[C@H](CC(C)C)NC(=O)[C@H](CCC(N)=O)NC(=O)[C@H](CCC(N)=O)NC(=O)[C@H](CC(=O)O)NC(=O)[C@H](CCCCN)NC(=O)[C@H](CC(C)C)NC(=O)[C@H](Cc1ccc(O)cc1)NC(=O)[C@H](CCCNC(=N)N)NC(=O)[C@H](CCC(=O)O)NC(=O)[C@@H](NC(=O)[C@H](C)NC(=O)[C@H](CC(C)C)NC(=O)[C@@H](NC(=O)[C@@H](N)CCCNC(=N)N)[C@@H](C)CC)C(C)C)C(=O)N[C@@H](Cc1c[nH]c2ccccc12)C(=O)NCC(=O)N[C@H]1CSSC[C@@H](C(=O)N[C@H](C(=O)N[C@H](C(=O)N[C@@H](C)C(=O)N[C@H](C(=O)N2CCC[C@H]2C(=O)N[C@@H](Cc2c[nH]c3ccccc23)C(=O)N[C@@H](CC(N)=O)C(=O)N[C@@H](C)C(=O)N[C@@H](CO)C(=O)O)C(C)C)[C@@H](C)O)[C@@H](C)O)NC(=O)[C@H]([C@@H](C)CC)NC(=O)[C@H](CC(C)C)NC(=O)[C@H](CCCCN)NC(=O)CNC(=O)[C@H](CO)NC1=O` [Peptide 87c] (HELM PEPTIDE1{R.I.L.A.V.E.R.Y.L.K.D.Q.Q.L.L.G.I.W.G.C.S.G.K.L.I.C.T.T.A.V.P.W.N.A.S}$PEPTIDE1,PEPTIDE1,20:R3-26:R3$$$V2.0), the ELISA optical density is recorded as 0.011 OPTICAL DENSITY UNITS in assay [2] (setting [6]); above 2.0 OPTICAL DENSITY UNITS in assay [2] (setting [7]); above 2.0 OPTICAL DENSITY UNITS in assay [2] (setting [8]); above 2.0 OPTICAL DENSITY UNITS in assay [2] (setting [9]); above 2.0 OPTICAL DENSITY UNITS in assay [2] (setting [10]); above 2.0 OPTICAL DENSITY UNITS in assay [2] (setting [11]). Moreover, the ELISA optical density was 1.854 OPTICAL DENSITY UNITS in assay [2] (setting [12]); above 2.0 OPTICAL DENSITY UNITS in assay [2] (setting [13]); above 2.0 OPTICAL DENSITY UNITS in assay [2] (setting [14]); 1.729 OPTICAL DENSITY UNITS in assay [2] (setting [15]); 1.348 OPTICAL DENSITY UNITS in assay [2] (setting [16]); 0.611 OPTICAL DENSITY UNITS in assay [2] (setting [17]). In addition, the ELISA optical density is above 2.0 OPTICAL DENSITY UNITS in assay [2] (setting [18]); above 2.0 OPTICAL DENSITY UNITS in assay [2] (setting [19]); 1.655 OPTICAL DENSITY UNITS in assay [2] (setting [20]); 1.064 OPTICAL DENSITY UNITS in assay [2] (setting [21]); 0.384 OPTICAL DENSITY UNITS in assay [2] (setting [22]); above 2.0 OPTICAL DENSITY UNITS in assay [2] (setting [23]). Moreover, the ELISA optical density in assay [2] (setting [24]) was above 2.0 OPTICAL DENSITY UNITS; in assay [2] (setting [25]), above 2.0 OPTICAL DENSITY UNITS; in assay [2] (setting [26]), above 2.0 OPTICAL DENSITY UNITS; in assay [2] (setting [27]), 1.962 OPTICAL DENSITY UNITS. In addition, the “% Positive Sera Correctly Identified” value in assay [1] (setting [3]) is given as 99%.
Consider “NH2 -CGYLKDQQLLGIWGCSGKLICTTAVPWNASWSNKSLEQI-COOH [Peptide 97]”, for which, in assay [1] (setting [3]), the “% Positive Sera Correctly Identified” value came to 100%.
Turning to “CGRAEQASQEVKN [Peptide 46, NH2 -CGRAEQASQEVKN-COOH]”, the “% Positive Sera Correctly Identified” value in assay [1] (setting [4]) came out at 0%; in assay [1] (setting [5]), 93%.
Regarding “NH2 -FAFAFGCSGKLICTTAVPWNASWSNKSLEQI-COOH [Peptide 91]”, the “% Positive Sera Correctly Identified” value in assay [1] (setting [3]) is 94%.
Regarding GHACVPTDPNPQEVVL [Peptide 14], the “% Positive Sera Correctly Identified” value in assay [1] (setting [3]) is 50%.
For the molecule “NH2 -VERYLKDQQLLGIWGCSGKLICTTAVPWNAS-COOH (H-VERYLKDQQLLGIWGCSGKLICTTAVPWNAS-OH; cysteine pairing not given here) [Peptide 81, gp 41 590-620]”, the “% Positive Sera Correctly Identified” value in assay [1] (setting [3]) is 100%.
Still for that read-out and setting: to “TKAKRRVVQREKRGAVGIGALFLGFLGAAGSG [Peptide 93]” belongs 37%.
The same measure, in the same setting: with `CC[C@H](C)[C@H](NC(=O)[C@H](CCC(N)=O)NC(=O)[C@H](CCC(=O)O)NC(=O)[C@H](CC(C)C)NC(=O)[C@H](CO)NC(=O)[C@H](CCCCN)NC(=O)[C@H](CC(N)=O)NC(=O)[C@H](CO)NC(=O)[C@H](Cc1c[nH]c2ccccc12)NC(=O)[C@H](CO)NC(=O)[C@H](C)NC(=O)[C@H](CC(N)=O)NC(=O)[C@H](Cc1c[nH]c2ccccc12)NC(=O)[C@@H]1CCCN1C(=O)[C@@H](NC(=O)[C@H](C)NC(=O)[C@@H](NC(=O)[C@@H](NC(=O)[C@@H]1CSSC[C@H](NC(=O)CN)C(=O)N[C@@H](CO)C(=O)NCC(=O)N[C@@H](CCCCN)C(=O)N[C@@H](CC(C)C)C(=O)N[C@@H]([C@@H](C)CC)C(=O)N1)[C@@H](C)O)[C@@H](C)O)C(C)C)C(=O)O` [Peptide 96] (HELM PEPTIDE1{G.C.S.G.K.L.I.C.T.T.A.V.P.W.N.A.S.W.S.N.K.S.L.E.Q.I}$PEPTIDE1,PEPTIDE1,2:R3-8:R3$$$V2.0) the figure was 100%; with “NH2 -CGLGIWGCSGKLICTTAVPWNASWSNKSLEQI-COOH [Peptide 98]”, 100%.

These data come from patent US6218102A, “Synthetic peptides and mixtures thereof for detecting HIV antibodies” (priority 1988, dated 2001).
